Laboratory results taken from patent US8178530B2, “Imidazolopyrazine compounds useful for the treatment of degenerative and inflammatory diseases” (Janssen Pharmaceutica NV, priority 2006, dated 2012).

Assays:
[1] = target: T1, MAPKAPK5 (Homo sapiens, UniProt Q8IW41); experiment: MAPKAP-K5 assay (FlashPlate, 33P-ATP); assay type: biochemical; conditions: 0.6 μM ATP, 30 minutes at room temperature
T1 construct: 1 mU MAPKAP-K5
T1 sequence (Q8IW41 1-473): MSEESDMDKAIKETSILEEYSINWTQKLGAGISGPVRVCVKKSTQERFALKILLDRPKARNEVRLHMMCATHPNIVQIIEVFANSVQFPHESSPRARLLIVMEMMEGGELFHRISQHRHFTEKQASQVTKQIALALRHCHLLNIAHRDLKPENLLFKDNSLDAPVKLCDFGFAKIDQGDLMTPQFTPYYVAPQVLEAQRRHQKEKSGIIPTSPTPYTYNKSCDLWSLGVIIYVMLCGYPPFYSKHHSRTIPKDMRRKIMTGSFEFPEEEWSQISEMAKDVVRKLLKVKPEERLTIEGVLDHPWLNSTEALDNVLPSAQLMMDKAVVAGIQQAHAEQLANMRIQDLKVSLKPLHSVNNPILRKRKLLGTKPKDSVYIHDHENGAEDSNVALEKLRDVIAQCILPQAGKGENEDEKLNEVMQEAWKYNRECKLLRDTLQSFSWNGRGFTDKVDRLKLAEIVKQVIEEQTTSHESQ
Procedure: 3 μM MAPKAP-K5 peptide substrate

[2] = tested on: MMP1 expression by SFs; experiment: 'MMP assay': MMP1 expression by 'complex trigger' activated synovial fibroblasts (MMP1 ELISA); assay type: cell-based, human; conditions: Homo sapiens, Fibroblast, RASFs, 48 hrs

Row | IC50 [1] [nM] | Compound | EC50 [2] [nM]
1 | > 1000 | CN1CCC(COc2ccc(Nc3ncc(-c4ccc(C(N)=O)c(F)c4)n4ccnc34)cc2)CC1 [Compound 159, 2-Fluoro-4-{8-[4-(1-methyl-piperidin-4-ylmethoxy)-phenylamino]-imidazo[1,2-a]pyrazin-5-yl}-benzamide] | 101 to 500
2 | 101 to 500 | c1cn2c(-c3cn[nH]c3C3CC3)cnc(Nc3ccc(N4CCOCC4)cc3)c2n1 [Compound 160, [5-(5-Cyclopropyl-1H-pyrazol-4-yl)-imidazo[1,2-a]pyrazin-8-yl]-(4-morpholin-4-yl-phenyl)-amine] | > 1000
3 | > 1000 | c1cn2c(-c3c[nH]cn3)cnc(Nc3ccc(N4CCOCC4)cc3)c2n1 [Compound 163] | > 1000
4 | > 1000 | NC(=O)c1c(F)cc(-c2cnc(Nc3ccc(N4CCOCC4)cc3)c3nccn23)cc1F [Compound 165] | > 1000
5 | > 1000 | CN(C)Cc1cn(-c2ccc(Nc3ncc(-c4ccc(C(N)=O)cc4)n4ccnc34)cc2)nn1 [Compound 166, 4-{8-[4-(4-Dimethylaminomethyl-[1,2,3]triazol-1-yl)-phenylamino]-imidazo[1,2-a]pyrazin-5-yl}-benzamide] | > 1000
6 | > 1000 | NC(=O)c1ccc(-c2cnc(Nc3ccc(-n4ccnc4)cc3)c3nccn23)cc1 [Compound 167] | > 1000
7 | > 1000 | c1cn(-c2ccc(Nc3ncc(-c4cn[nH]c4)n4ccnc34)cc2)cn1 [Compound 168, (4-Imidazol-1-yl-phenyl)-[5-(1H-pyrazol-4-yl)-imidazo[1,2-a]pyrazin-8-yl]-amine] | > 1000
8 | > 1000 | Cn1nnc(-c2ccc(Nc3ncc(-c4cn[nH]c4)n4ccnc34)cc2)n1 [Compound 169, [4-(2-Methyl-2H-tetrazol-5-yl)-phenyl]-[5-(1H-pyrazol-4-yl)-imidazo[1,2-a]pyrazin-8-yl]-amine] | 101 to 500
9 | > 1000 | CN1CCN(c2ccc(Nc3ncc(-c4ccc(C(N)=O)cc4)n4ccnc34)cc2F)CC1 [Compound 171, 4-{8-[3-Fluoro-4-(4-methyl-piperazin-1-yl)-phenylamino]-imidazo[1,2-a]pyrazin-5-yl}-benzamide] | 101 to 500
10 | > 1000 | NC(=O)c1ncc(-c2cnc(Nc3ccc(N4CCOCC4)cc3)c3nccn23)s1 [Compound 173, 5-[8-(4-Morpholin-4-yl-phenylamino)-imidazo[1,2-a]pyrazin-5-yl]-thiazole-2-carboxylic acid amide] | > 1000
11 | 501 to 1000 | Cc1[nH]ncc1-c1cnc(Nc2ccc(N3CCOCC3)cc2)c2nccn12 [Compound 176] | > 1000
12 | 101 to 500 | C[C@@H]1CN(c2ccc(Nc3ncc(-c4cc(F)c(C(N)=O)c(F)c4)n4ccnc34)cc2)[C@@H](C)CN1C [Compound 181] | > 1000
13 | 101 to 500 | C[C@@H]1CN(c2ccc(Nc3ncc(-c4csc(C(N)=O)c4)n4ccnc34)cc2)[C@@H](C)CN1C [Compound 186] | 501 to 1000
14 | 1 to 100 | C[C@@H]1CN(c2ccc(Nc3ncc(-c4cc(C(N)=O)co4)n4ccnc34)cc2)[C@@H](C)CN1C [Compound 187] | 101 to 500
15 | > 1000 | Cc1oc(-c2cnc(Nc3ccc(N4CCOCC4)cc3)c3nccn23)cc1C(N)=O [Compound 188] | 501 to 1000
16 | 501 to 1000 | CC(C)N1CCN(c2ccc(Nc3ncc(-c4cc(F)c(C(N)=O)c(F)c4)n4ccnc34)cc2)CC1 [Compound 193] | 501 to 1000
17 | 101 to 500 | O=C1NCc2cc(-c3cnc(Nc4cccnc4)c4nccn34)ccc21 [Compound 197] | 501 to 1000
18 | 101 to 500 | O=C1NCc2cc(-c3cnc(Nc4ccc(N5CCOCC5)cc4)c4nccn34)sc21 [Compound 198, 2-[8-(4-Morpholin-4-yl-phenylamino)-imidazo[1,2-a]pyrazin-5-yl]-4,5-dihydro-thieno[2,3-c]pyrrol-6-one] | 101 to 500
19 | 101 to 500 | CC(C)N1CCN(c2ccc(Nc3ncc(-c4coc(C(N)=O)c4)n4ccnc34)cc2)CC1 [Compound 204, 4-{8-[4-(4-Isopropyl-piperazin-1-yl)-phenylamino]-imidazo[1,2-a]pyrazin-5-yl}-furan-2-carboxylic acid amide] | 501 to 1000
20 | 1 to 100 | CC(C)N1CCN(c2ccc(Nc3ncc(-c4ccc5c(c4)CNC5=O)n4ccnc34)cc2)CC1 [Compound 205, 5-{8-[4-(4-Isopropyl-piperazin-1-yl)-phenylamino]-imidazo[1,2-a]pyrazin-5-yl}-2,3-dihydro-isoindol-1-one] | > 1000
21 | 1 to 100 | CC(C)N1CCN(c2ccc(Nc3ncc(-c4ccc5c(c4)CNC5=O)n4ccnc34)cn2)CC1 [Compound 210, 5-{8-[6-(4-Isopropyl-piperazin-1-yl)-pyridin-3-ylamino]-imidazo[1,2-a]pyrazin-5-yl}-2,3-dihydro-isoindol-1-one] | 501 to 1000
22 | > 1000 | CN(C)Cc1cc(Nc2ncc(-c3cn[nH]c3)n3ccnc23)ccc1N1CCOCC1 [Compound 218, (3-Dimethylaminomethyl-4-morpholin-4-yl-phenyl)-[5-(1H-pyrazol-4-yl)-imidazo[1,2-a]pyrazin-8-yl]-amine] | > 1000
